Columns and labels:
[1] = system: liver cancer HepG2 cells, colorectal cancer LoVo, HT29, DLD1, SW480, and HCT116 cells; assay: Growth inhibition by Lenvatinib alone and with Sotagliflozin in a variety of cell lines; format: cell-based; settings: addition of Sotagliflozin at a safe dose; FIG. 5
Source text: Therefore, the effect of the combination in the safe concentration range of Sotagliflozin is better than the effect of each single agent. It is worth mentioning that the ability of Sotagliflozin in the combination to enhance the efficacy of VEGFR-targeting TKI drugs is not limited to a single drug of Apatinib.

[2] = system: lung cancer A549 cells; assay: A549 xenograft tumor treatment trial in nude mice; format: in vivo, Balbc nude mice; settings: for Average tumor volume: in mm³ (unit assumed)
Method: After growing to the logarithmic phase, A549 cells were collected and resuspended in serum-free DMEM medium to 5×10^7 cells per ml. Each mouse was inoculated with 100 μl of 5×10^6 cells, and the tumor size was measured 19 days later. Mice were grouped according to the tumor size, and the average tumor size in each group was the same. Mice were administered after grouping. […] The dosage of Gefitinib was 100 mg per kilogram according to the reported dose for the treatment of A549 xenografts in previous studies. The two drugs were administered by gavage, consistent with the current oral mode in clinical use. The dosing cycle was once every two days. The tumor size was measured every two days. After 40 days of administration, the test was ended, and the tumor was removed and weighed.

[3] = system: lung cancer A549 cells; assay: Trypan blue staining of A549 cells treated with Gefitinib in sugar-free and sugar-containing medium; format: cell-based; settings: 20 μM Gefitinib, 48 hours
Method: […]. A549 cells were grown to 80% density, passed, resuspended in a normal medium (25 mM glucose) to a concentration of 4×10^5 cells per ml, and plated in a 24-well plate with 1 ml per well. After 24 hours, the medium was changed to sugar-free medium (0 mM glucose) and normal medium, respectively, and added with Gefitinib for treating the cell. After 48 hours, the medium was discarded, and 1 ml of 1×PBS was added to wash once, and 1 ml of 1×Trypan Blue was added to each well for staining for 10 minutes. Then, the trypan blue staining solution was aspirated, and the plate was washed three times by adding 1 ml of 1×PBS, and photographed under a light microscope. […] […]. […] According to the background section, cancer cells mainly rely on the SGLT family of proteins to absorb sugar. Therefore, the present disclosure relates use of a composition comprising dual inhibitor Sotagliflozin of SGLT1 and SGLT2, the two most important members of the SGLT family highly expressed in cancer cells, and a tyrosine kinase inhibitor in the manufacture of a medicament for treating cancer.
. Based on the previous findings illustrated in FIG. 1, Sotagliflozin was purchased from Selleck Chemicals for growth inhibition test of cancer cell in vitro. […] Therefore, the concentration of Sotagliflozin used in the subsequent compositions of this experiment were lower than 80 μM to avoid affecting normal cells.

[4] = system: Lung cancer cell line A549; assay: IC50 determination of EGFR inhibitor + Sotagliflozin combination on A549; format: cell-based; settings: Homo sapiens, single agent, cell survival rate after 1 h incubation, read-out: IC50 value on A549 cells
Method: After growing to 80% density, the cells were trypsinized, passaged and plated in a 96-well plate with 5000 cells per well. After 24 hours, the medium was replaced with a medium containing the corresponding concentration of drug. After 48 hours, the absorbance at each concentration was detected by the MTT method.

[5] = system: normal human umbilical cord epithelial cells; assay: Determination of the safe concentration of Sotagliflozin on normal cells; format: cell-based
Method: The killing effect of Gefitinib on lung cancer A549 cells cultured in sugar-free medium and sugar-containing medium 48 hours after treating A549 cells with 20 μM Gefitinib, trypan blue staining was used to distinguish live cells from dead cells which were stained blue by trypan blue. Based on the previous findings illustrated in FIG. 1, Sotagliflozin was purchased from Selleck Chemicals for growth inhibition test of cancer cell in vitro. […] Therefore, the concentration of Sotagliflozin used in the subsequent compositions of this experiment were lower than 80 μM to avoid affecting normal cells.

[6] = system: Liver cancer cell line HepG2; assay: IC50 determination of Apatinib+Sotagliflozin combination on HepG2; format: cell-based; settings: Homo sapiens, single agent, cell survival rate after 2 h incubation, read-out: IC50 value on HepG2 cells
Source text: After obtaining the effectiveness of […] in Example 1, the present disclosure further validated another VEGFR-targeting TKI drug, Apatinib. According to the tissue distribution characteristics of VEGFR and SGLT1/2, the targets of Apatinib and Sotagliflozin, the followings cells were selected for experimental verification: liver cancer cell line HepG2; colorectal cancer cell line LoVo, HT29, SW620, SW480; cervical cancer HeLa; ovarian cancer SKOV3; gastric cancer NGC27; cholangiocarcinoma RBE; esophageal cancer KYSE3. After growing to 80% density, the cells were trypsinized, passaged and plated in a 96-well plate with 5000 cells per well. […] After 48 hours, the absorbance at each concentration was detected by the MTT method. […]
Apatinib test group (FIG. 4-b-1): cells were treated by adding Apatinib alone at 6 different concentrations, 0 μM, 5 μM, 10 μM, 20 μM, 30 μM and 40 μM, respectively, to the culture medium, and cell survival rate was measured after 2 h incubation.
Sotagliflozin test group (FIG. 4-b-2): cells were treated by adding Sotagliflozin alone at 7 different concentrations, 0 μM, 20 μM, 30 μM, 40 μM, 60 μM, 80 μM and 100 μM respectively, to the culture medium, and cell survival rate was measured after 2 h incubation. […]

[7] = system: liver cancer cell line HepG2; colorectal cancer cell line LoVo, HT29, SW620, SW480; assay: MTT cell growth inhibition, Apatinib alone and with Sotagliflozin; format: cell-based; settings: Apatinib alone 5-30 μM, 48 hours, FIG. 4-a-1 to 4-a-5
Source text: After obtaining the effectiveness of […] in Example 1, the present disclosure further validated another VEGFR-targeting TKI drug, Apatinib. According to the tissue distribution characteristics of VEGFR and SGLT1/2, the targets of Apatinib and Sotagliflozin, the followings cells were selected for experimental verification: liver cancer cell line HepG2; colorectal cancer cell line LoVo, HT29, SW620, SW480; cervical cancer HeLa; ovarian cancer SKOV3; gastric cancer NGC27; cholangiocarcinoma RBE; esophageal cancer KYSE3. After growing to 80% density, the cells were trypsinized, passaged and plated in a 96-well plate with 5000 cells per well. After 24 hours, the medium was replaced with a medium containing the corresponding concentration of Apatinib, Sotagliflozin, or the combination of Apatinib and Sotagliflozin. After 48 hours, the absorbance at each concentration was detected by the MTT method. The experiment included the following groups: Control group: cells were cultured in normal culture medium without drug added. […] The cell growth inhibition rate is calculated by dividing the absorbance value at each concentration by the absorbance value of the control group. […] In the figure, the concentration of Apatinib is taken as the abscissa and the cell growth inhibition rate is taken as the ordinate.

[8] = A549 tumor-bearing mice, gavage once every two days, 40 days, Sotagliflozin 30 mg/kg, Gefitinib 100 mg/kg

COc1cc2nccc(Oc3ccc(NC(=O)NC4CC4)c(Cl)c3)c2cc1C(N)=O [Lenvatinib]
effect of adding Sotagliflozin on inhibitory effect of Lenvatinib [1]: enhanced the inhibitory effect

COc1cc2ncnc(Nc3ccc(F)c(Cl)c3)c2cc1OCCCN1CCOCC1 [Gefitinib]
Tumor volume ratio of each group to the control group ([2]; mouse, in vivo): 0.4881
effectiveness evaluation ([2]; mouse, in vivo): ineffective
Average tumor volume ([2]; mouse, in vivo): 504.8
trypan blue staining (dead cells stained blue) ([3]; normal medium (25 mM glucose)): almost no blue coloration
trypan blue staining (dead cells stained blue) ([3]; sugar-free medium (0 mM glucose)): almost all colored blue, indicating dead cells

CCOc1ccc(Cc2cc([C@@H]3O[C@H](SC)[C@@H](O)[C@H](O)[C@H]3O)ccc2Cl)cc1 [Sotagliflozin]
inhibition of tumor growth (in words) ([2]; A549 tumor-bearing mice, FIG. 7-a to 7-c): can inhibit tumor growth
Tumor growth inhibition rate [2, 8]: 58.4%
Tumor volume ratio of each group to the control group [2, 8]: 0.416
Average tumor volume [2, 8]: 430.3
effectiveness evaluation ([2]; effective if tumor growth inhibition rate greater than 60% and p value less than 0.05): ineffective
IC50 [4]: 73 µM
concentration mainly exhibiting cell growth inhibition effect [5]: lower than 80 μM
concentration producing great cytotoxicity [5]: higher than 80 μM
IC50 [6]: 116 µM

N#CC1(c2ccc(NC(=O)c3cccnc3NCc3ccncc3)cc2)CCCC1 [Apatinib]
inhibitory effect on tumor cells (cell growth inhibition rate) [7]: limited
IC50 [6]: 46 µM

Source: patent US12048711B2, “Composition and use thereof in the manufacture of medicament for treating cancer” (priority 2020, dated 2024)
